Patent US20250360091A1, “COMBINATION OF SGLT2 INHIBITOR AND MENTHOL AND USE THEREOF IN TREATMENT OF HEART DISEASE” (EAST CHINA UNIVERSITY OF SCIENCE AND TECHNOLOGY, priority 2023, published 2025)

What was measured:
[1] = system: intracellular calcium concentration; test: Intracellular calcium ion concentration with calcium probe Fluo4-AM (Example 5); format: cell-based; details: cariporide 100 μM, empagliflozin 50 μM, menthol 200 μM, combination 50 μM + 200 μM
From the text: Intracellular calcium overload is an important factor in the transition of myocardial cells from reversible to irreversible damage. Intracellular calcium overload can be seen in a variety of cardiac pathological states, such as cardiac remodeling, myocardial ischemia-reperfusion injury, viral myocarditis, dilated cardiomyopathy, arrhythmias, and congestive heart failure. […] Empagliflozin can act on the sodium-hydrogen exchanger 1 (NHE1) on the myocardial cell membrane. When myocardial ischemia occurs, myocardial cell energy metabolism is impaired, and myocardial cells switch from fatty acid metabolism to sugar-free glycolysis, producing a large amount of lactic acid, which reduces the intracellular pH. As a regulatory protein for cell pH homeostasis, NHE1 can transport H^+ out of the cell by exchanging extracellular sodium ions, resulting in an increase in the intracellular sodium ion concentration. […] When mitochondrial function is impaired, the release of ROS increases, and ROS can further stimulate L-type calcium channels, promoting Ca^2+ influx, creating a vicious cycle. Empagliflozin inhibits the activity of NHE1 and can indirectly reduce the intracellular calcium ion concentration. Menthol, as an L-type calcium channel blocker, can synergistically reduce the intracellular calcium ion concentration with empagliflozin, playing a synergistic role. In order to verify this synergistic mechanism, the intracellular calcium ion concentration was detected using the calcium ion probe Fluo4-AM.
The experiment was divided into 5 groups, including control group (no drug group), cariporide group (positive control group, 100 μM), EMPA-50 (empagliflozin, 50 μM), M-200 (menthol, 200 μM), and E50+M200 (combination of 50 μM empagliflozin and 200 μM menthol).
• (1) Take an appropriate amount of Fluo4-AM stock solution (2 mM, BeyoTime, S1060) and dilute it to a 10 μM working solution with HBSS; • (2) For the cells to be tested (covering the bottom of the dish), remove the culture medium and wash with HBSS three times; • (3) Add 25 μL of Fluo4-AM working solution to each well, and then add 25 μL of compound solution to each well; • (4) Incubate at 37° C. for 30 min for fluorescent probe loading; • (5) Wash three times with HBSS, and add 100 μL of HBSS containing 10 mM CaCl2) to each well. Detect quantitatively the fluorescence of Fluo4-AM using a multifunctional fluorescence microplate reader (excitation wavelength 488 nm, emission wavelength 520 nm) to determine the changes in intracellular calcium ions.
Since empagliflozin indirectly affects intracellular calcium concentration by inhibiting NHE1, the intracellular environment was made acidic by using ammonium chloride solution to simulate the environment during myocardial ischemia, and the effect of the administered composition on intracellular calcium ions was tested. The NHE1 inhibitor cariporide was used as a positive control. The above step (3) was changed to add 25 μL of Fluo4-AM working solution to each well, mix the test compound with 80 mM NH4Cl solution at a 1:1 ratio, and then add 25 μL mixed solution of the compound and NH4Cl to each well (the final concentration of NH4Cl was 20 mM), and the remaining steps were the same as above.

[2] = system: Rat cardiomyocytes (H9c2); test: GD-induced myocardial cell damage model, CCK-8, SGLT2 inhibitors with L-menthol (Example 9); format: cell-based; details: single drugs: SGLT2 inhibitor 50 μM or menthol 200 μM; GD 36-48 h; untreated group 54.7%
Procedure: In this example, the protective effect of the drug composition on myocardial cells was evaluated by using a GD-induced myocardial cell damage model. […] Rat cardiomyocytes (H9c2) were purchased from the Chinese Academy of Sciences Stem Cell Bank. The cardiomyocytes were cultured in high-glucose DMEM medium (Gibco, 11995-065) containing 10% fetal bovine serum and 1% penicillin/streptomycin, and incubated in a 37° C., 5% CO2 incubator. […] When the cells reached confluence, the DMEM medium was removed, and the cells were washed once with PBS. […] The synergistic coefficient was calculated using the Zero interaction dose model, with the formula: CI=(EAB−EA*EB)/(EA+EB−EA*EB), wherein CI is the synergistic effect index, EAB is the efficacy index of the combination of drugs, and EA and EB are the efficacy indices of the individual drugs, respectively.

Row | Compound | effect on intracellular calcium concentration (Fluo4-AM fluorescence) ([1]; NH4Cl present (20 mM, acidic intracellular conditions)) | effect on intracellular calcium concentration (Fluo4-AM fluorescence) ([1]; absence of NH4Cl) | cell survival rate [2] [%]
1 | CC(C)c1ccc(C(=O)NC(=N)N)cc1S(C)(=O)=O [cariporide] | significantly reduce intracellular calcium concentration | almost no effect | –
2 | canagliflozin | – | – | 60.2
3 | CCOc1ccc(Cc2cc([C@]34OC[C@](CO)(O3)[C@@H](O)[C@H](O)[C@H]4O)ccc2Cl)cc1 [ertugliflozin] | – | – | 58.6
4 | CCOc1ccc(Cc2cc([C@@H]3O[C@H](CO)[C@@H](O)[C@H](O)[C@H]3O)ccc2Cl)cc1 [dapagliflozin] | – | – | 58.9
